According to US10744188B2, “High osteocalcin microcrystalline hydroxyapatite for calcium supplement” (Waitaki Biosciences, priority 2013, dated 2020):
Entries after “also recorded” stand apart in the source; their conditions may differ. Structures can show the parent of a compound that is named as a salt.

Key:
[1] = 90 day study of bone calcium level and markers of bone mineralization and turnover; assay type: in vivo; settings: 90 day experimental duration
[2] = blood ionized calcium concentration after ingestion of calcium supplement (clinical tests, FIG. 1)
From the text: For some time microcrystalline hydroxyapatite (MCHA) manufactured from animal bones has been used as a slightly unconventional calcium supplement. Considering that bone mineral is largely calcium phosphate in the form of hydroxyapatite, it seems logical to use MCHA as a source of bone calcium. However, there can be some difficulty in purifying MCHA from native bones because there is considerable excess protein and lipid that must be removed to provide a stable as well as readily digestible product. As might be imagined there is considerable variation in the process parameters for making an MCHA product. In a study intended to compare MCHA to conventional calcium supplements, the inventors analyzed MCHA produced using varied protocols. They were surprised to discover that depending on how the MCHA is manufactured, its rate of bioabsorption changes quite dramatically. After considerable experimentation, the inventors developed the current product which was then compared to calcium carbonate and calcium citrate in both an absorption (measured by blood calcium concentration) and a bone mineralization/density study.
However, it must be kept in mind that the blood calcium concentration is maintained by withdrawing calcium from the bones if the dietary supply is insufficient.
In FIG. 1 the blood levels of ionized calcium of two different MHCA preparations (see below for preparation details) are compared to blood calcium levels provided by other calcium supplements.

Molecule | bone calcium level and other markers of bone mineralization and turnover, compared with calcium-free placebo [1] | bone calcium level and other markers of bone mineralization and turnover, supplements compared with each other [1] | duration of spiking of blood calcium concentration ([2]; after ingestion) | blood ionized calcium level after ingestion ([2]; compared with calcium-free placebo/control) | blood ionized calcium level after ingestion ([2]; in vivo) | blood ionized calcium level after ingestion ([2]; human, in vivo) | duration of spiking of blood calcium concentration ([2]; human, in vivo)
O=C([O-])[O-].[Ca+2] [calcium carbonate] | statistically significantly different from the calcium-free placebo | not statistically significantly different from each other | ca. 8 hour | spike above the normal 1 mM concentration; also recorded: rapid increase in ionized blood calcium | – | – | –
microcrystalline hydroxyapatite [MCHA] | – | – | – | – | not statistically significantly different from the calcium-free placebo | – | –
O=C(O)CC(O)(CC(=O)O)C(=O)O [calcium citrate] | statistically significantly different from the calcium-free placebo | not statistically significantly different from each other | – | – | rapid increase in ionized blood calcium | spike above the normal 1 mM concentration | ca. 8 hour
